Our source for the EC50 values is patent publication US11098010B2 (priority 2017, dated 2021).

SMILES strings stand for the structures. Like-named read-outs stand apart in the source and are kept apart here.

The subject of the assay is HBV rcDNA in HepDE19 cells. Put plainly: HepDE19 assay with bDNA quantitation of HBV rcDNA. The assay is classed as cell-based, hepatitis B virus (HBV). How it is done: HepDE19 Assay with bDNA Quantitation of HBV rcDNA:
HepDE19 cell culture system is a HepG2 (human hepatocarcinoma) derived cell line that supports HBV DNA replication and cccDNA formation in a tetracycline (Tet)-regulated manner and produces HBV rcDNA and a detectable reporter molecule dependent on the production and maintenance of cccDNA (Guo, et al., 2007, J. Virol. 81:12472-12484).
HepDE19 (50,000 cells/well) were plated in 96-well collagen-coated tissue-culture treated microtiter plates in DMEM/F12 medium supplemented with 10% fetal bovine serum, 1% penicillin-streptomycin and 1 μg/mL tetracycline and incubated in a humidified incubator at 37° C. and 5% CO2 overnight. Next day, the cells were switched to fresh medium without tetracycline and incubated for 4 hours at 37° C. and 5% CO2. The cells were treated with fresh Tet-free medium with compounds at concentrations starting at 25 μM and a serial, ½ log, 8-point, titration series in duplicate. The final DMSO concentration in the assay was 0.5%. The plates were incubated for 7 days in a humidified incubator at 37° C. and 5% CO2. Following a 7 day-incubation, the level of rcDNA present in the inhibitor-treated wells was measured using a Quantigene 2.0 bDNA assay kit (Affymetrix, Santa Clara, Calif.) with HBV specific custom probe set and manufacturers instructions. Concurrently, the effect of compounds on cell viability was assessed using replicate plates, plated at a density of 5,000 cells/well and incubated for 4 days, to determine the ATP content as a measure of cell viability using the cell-titer glo reagent (CTG; Promega Corporation, Madison, Wis.) as per manufacturer's instructions. The plates were read using a Victor luminescence plate reader (PerkinElmer Model 1420 Multilabel counter) and the relative luminescence units (RLU) data generated from each well was calculated as % inhibition of the untreated control wells and analyzed using XL-Fit module in Microsoft Excel to determine EC50 and EC90 (bDNA) and CC50 (CTG) values using a 4-parameter curve fitting algorithm.
Representative compounds of the invention were tested for their abilities to inhibit formation of relaxed circular DNA (rcDNA) in a HepDE19 assay, as described elsewhere herein.

Setting [1] is: HepDE19 cells, inhibition of rcDNA formation, 7 day incubation, top concentration 25 μM, read-out: DE-19 bDNA EC50.
Where [2] appears, read: Hepatitis B virus, HepDE19, 168 h, HepDE19 cells, inhibition of rcDNA formation, 7 day incubation, top concentration 25 μM, read-out: DE-19 bDNA EC50.
Where [3] appears, read: read-out: DE-19 bDNA EC50, HepDE19 cells, inhibition of rcDNA formation, 7 day incubation, top concentration 25 μM.
[4] abbreviates: Hepatitis B virus, HepDE19, 168 h, read-out: DE-19 bDNA EC50 (μM), HepDE19 cells, inhibition of rcDNA formation, 7 day incubation, top concentration 25 μM.

As to `O=C1NC(=O)C2(CCc3c(C(=O)Nc4ccc(F)c(Cl)c4)ccc(F)c32)N1` (single isomer, unassigned) [Compound 257, N-(3-chloro-4-fluoro-phenyl)-7′-fluoro-2,5-dioxo-spiro[imidazolidine-4,1′-indane]-4′-carboxamide], the EC50 under setting [1] is over 25 µM. On the same count and under the same terms, the value for `O=C1NC(=O)C2(CCc3c(C(=O)Nc4ccc(F)c(Cl)c4)ccc(F)c32)N1` (single isomer, unassigned) [Compound 258, N-(3-chloro-4-fluoro-phenyl)-7′-fluoro-2,5-dioxo-spiro [imidazolidine-4,1′-indane]-4′-carboxamide] was 0.57 µM; that for `CN1C(=O)NC2(CCc3c(C(=O)Nc4ccc(F)c(Cl)c4)ccc(F)c32)C1=O` (single isomer, unassigned) [Compound 261, N-(3-chloro-4-fluoro-phenyl)-7′-fluoro-1-methyl-2,5-dioxo-spiro [imidazolidine-4,1′-indane]-4′-carboxamide] was 2.7 µM.

For the compound `CN1C(=O)NC2(CCc3c(C(=O)Nc4ccc(F)c(Cl)c4)ccc(F)c32)C1=O` (single isomer, unassigned) [Compound 262, N-(3-chloro-4-fluoro-phenyl)-7′-fluoro-1-methyl-2,5-dioxo-spiro [imidazolidine-4,1′-indane]-4′-carboxamide], the EC50 under setting [1] was 14 µM.

Take `O=C(NC1CCc2c(C(=O)Nc3ccc(F)c(Cl)c3)cncc21)OCc1ccccn1` (single isomer, unassigned) [Compound 271, O-Pyridin-2-ylmethyl, N-(4-((3-chloro-4-fluorophenyl)carbamoyl)-6,7-dihydro-5H-cyclopenta[c]pyridin-7-yl)carbamate]: under setting [2], the EC50 is 5.7 µM. Same read-out and setting: the value for `COC(=O)N[C@H]1CCc2c(C(=O)Nc3ccc(F)c(F)c3)cccc21` [Compound 1, O-methyl, N—(S)-(4-((3,4-difluorophenyl)carbamoyl)-2,3-dihydro-1H-inden-1-yl) carbamate] was 0.64 µM; that for `CNC(=O)N[C@H]1CCc2c(C(=O)Nc3ccc(F)c(F)c3)cccc21` [Compound 2, (S)—N-(3,4-Difluorophenyl)-1-(3-methylureido)-2,3-dihydro-1H-indene-4-carboxamide] was 1.4 µM. Consider `O=C(N[C@H]1CCc2c(C(=O)Nc3ccc(F)c(F)c3)cccc21)OCc1ccccn1` [Compound 3, O-Pyridin-2-ylmethyl, N—(S)-(4-((3,4-difluorophenyl)carbamoyl)-2,3-dihydro-1H-inden-1-yl) carbamate], for which the EC50 under setting [2] was 0.5 µM. Consider `COC(=O)NC1COc2c(C(=O)Nc3ccc(F)c(F)c3)cccc21` (stereo not drawn) [Compound 4, O-Methyl, N-(7-((3,4-difluorophenyl)carbamoyl)-2,3-dihydrobenzofuran-3-yl) carbamate], for which, under setting [3], the EC50 amounted to 5.3 µM. For `COC(=O)NC1COc2c(C(=O)Nc3ccc(F)c(F)c3)cccc21` (stereo not drawn) [Compound 5, O-Methyl, N-(7-((3,4-difluorophenyl)carbamoyl)-2,3-dihydrobenzofuran-3-yl) carbamate], the EC50 under setting [3] is 14 µM.

For `COC(=O)NC1COc2c(C(=O)Nc3ccc(F)c(F)c3)cccc21` (stereo not drawn) [Compound 6, O-Methyl, N-(7-((3,4-difluorophenyl)carbamoyl)-2,3-dihydrobenzofuran-3-yl) carbamate], the EC50 under setting [3] was 1.3 µM. Regarding `O=C1CC[C@H](COC(=O)N[C@H]2CCc3c(C(=O)Nc4ccc(F)c(Cl)c4)ccc(F)c32)N1` [Compound 9, O—((R)-5-Oxopyrrolidin-2-yl)methyl, N—((S)-4-((3-chloro-4-fluorophenyl)carbamoyl)-7-fluoro-2,3-dihydro-1H-inden-1-yl) carbamate], the EC50 under setting [4] was 0.58 µM. Take `CC(C)(C)OC(=O)N[C@H]1CCc2c(C(=O)Nc3ccc(F)c(Cl)c3)ccc(F)c21` [Compound 10, O-tert-Butyl, N—(S)-(4-((3-chloro-4-fluorophenyl)carbamoyl)-7-fluoro-2,3-dihydro-1H-inden-1-yl) carbamate]: the EC50 under setting [2] worked out at 0.8 µM. Consider `COC(=O)N[C@H]1CCc2c(C(=O)Nc3ccc(F)c(C)c3)ccc(F)c21` [Compound 11, O-Methyl, N—(S)-(7-fluoro-4-((4-fluoro-3-methylphenyl)carbamoyl)-2,3-dihydro-1H-inden-1-yl) carbamate], for which the EC50 under setting [4] amounted to 0.21 µM.

For the compound `CNC(=O)N[C@H]1CCc2c(C(=O)Nc3ccc(F)c(C)c3)ccc(F)c21` [Compound 12, (S)-7-Fluoro-N-(4-fluoro-3-methylphenyl)-1-(3-methylureido)-2,3-dihydro-1H-indene-4-carboxamide], the EC50 under setting [4] turned out to be 0.38 µM. As for `N[C@H]1CCc2c(C(=O)Nc3ccc(F)c(Cl)c3)ccc(F)c21` [Compound 13, (S)-1-Amino-N-(3-chloro-4-fluorophenyl)-7-fluoro-2,3-dihydro-1H-indene-4-carboxamide], the EC50 under setting [2] is over 25 µM. Consider `O=C(N[C@H]1CCc2c(C(=O)Nc3ccc(F)c(Cl)c3)ccc(F)c21)OCCN1CCCC1=O` [Compound 14, O-2-(2-Oxopyrrolidin-1-yl)ethyl, N—(S)-(4-((3-chloro-4-fluorophenyl)carbamoyl)-7-fluoro-2,3-dihydro-1H-inden-1-yl) carbamate], for which, under setting [4], the EC50 is 0.45 µM. Still for that read-out and setting: the value for `O=C(N[C@H]1CCc2c(C(=O)Nc3ccc(F)c(Cl)c3)cccc21)OCc1ccccn1` [Compound 17] was 0.17 µM; that for `O=C1CC[C@@H](COC(=O)N[C@H]2CCc3c(C(=O)Nc4ccc(F)c(Cl)c4)ccc(F)c32)N1` [Compound 18, O—((S)-5-Oxopyrrolidin-2-yl)methyl, N—((S)-4-((3-chloro-4-fluorophenyl)carbamoyl)-7-fluoro-2,3-dihydro-1H-inden-1-yl) carbamate] was 0.34 µM. Consider `COC(=O)N[C@H]1CCc2c(C(=O)Nc3ccc(F)c(Cl)c3)ccc(F)c21` [Compound 19, O-Methyl, N—(S)-(4-((3-chloro-4-fluorophenyl)carbamoyl)-7-fluoro-2,3-dihydro-1H-inden-1-yl) carbamate], for which the EC50 under setting [2] was found to be 0.17 µM. For `CNC(=O)N[C@H]1CCc2c(C(=O)Nc3ccc(F)c(Cl)c3)ccc(F)c21` [Compound 20, (S)—N-(3-Chloro-4-fluorophenyl)-7-fluoro-1-(3-methylureido)-2,3-dihydro-1H-indene-4-carboxamide], under setting [4], the EC50 was 0.32 µM. On the same count and under the same terms, the value for `O=C1CC[C@H](COC(=O)N[C@H]2CCc3c(C(=O)Nc4ccc(F)c(Cl)c4)cccc32)N1` [Compound 21, O—((R)-5-Oxopyrrolidin-2-yl)methyl, N—((S)-4-((3-chloro-4-fluorophenyl)carbamoyl)-2,3-dihydro-1H-inden-1-yl) carbamate] was 0.58 µM.

`O=C1CC[C@@H](COC(=O)N[C@H]2CCc3c(C(=O)Nc4ccc(F)c(Cl)c4)cccc32)N1` [Compound 22, O—((S)-5-Oxopyrrolidin-2-yl)methyl, N—((S)-4-((3-chloro-4-fluorophenyl)carbamoyl)-2,3-dihydro-1H-inden-1-yl) carbamate]: under setting [4], the EC50 was found to be 0.44 µM. `Cc1cc(NC(=O)c2cccc3c2CC[C@@H]3NC(=O)OCc2ccccn2)ccc1F` [Compound 23, O-Pyridin-2-ylmethyl, N—(S)-(4-((4-fluoro-3-methylphenyl)carbamoyl)-2,3-dihydro-1H-inden-1-yl) carbamate]: the EC50 under setting [2] was 0.45 µM. In the case of `Cc1cc(NC(=O)c2cccc3c2CC[C@@H]3NC(=O)OC[C@H]2CCC(=O)N2)ccc1F` [Compound 24, O—((R)-5-Oxopyrrolidin-2-yl)methyl, N—((S)-4-((4-fluoro-3-methylphenyl)carbamoyl)-2,3-dihydro-1H-inden-1-yl) carbamate], under setting [4], the EC50 is 1.5 µM. Same read-out and setting: as for `Cc1cc(NC(=O)c2cccc3c2CC[C@@H]3NC(=O)OC[C@@H]2CCC(=O)N2)ccc1F` [Compound 25, O—((S)-5-Oxopyrrolidin-2-yl)methyl, N—((S)-4-((4-fluoro-3-methylphenyl)carbamoyl)-2,3-dihydro-1H-inden-1-yl) carbamate], the figure is 1.1 µM; as for `O=C(N[C@H]1CCc2c(C(=O)Nc3ccc(F)c(Cl)c3)ccc(F)c21)OCC(=O)N1CCCC1` [Compound 26, O-2-Oxo-2-(pyrrolidin-1-yl)ethyl, N—(S)-(4-((3-chloro-4-fluorophenyl)carbamoyl)-7-fluoro-2,3-dihydro-1H-inden-1-yl) carbamate], 0.44 µM.
